Measurements taken from BindingDB's records for PubMed 32492596 (Tsinghua University, 2020).
pIC50: −log10 of the molar value.

Experiments:
[1] = target: C-X-C chemokine receptor type 4 (Homo sapiens, UniProt P61073); assay: Binding affinity to CXCR4 (unknown origin) expressed in CHO cells incubated for 40 mins by competitive binding assay method
[2] = target: Stromal cell-derived factor 1 (Homo sapiens, UniProt P48061); assay: Inhibition of SDF-1 alpha induced cell migration in human SUP-T1 cells pre-incubated for 30 mins followed by SDF-1 alpha addition measured after 3 hrs by cell Titer-96 reagent based analysis
Sequence of Stromal cell-derived factor 1 (P48061 whole entry): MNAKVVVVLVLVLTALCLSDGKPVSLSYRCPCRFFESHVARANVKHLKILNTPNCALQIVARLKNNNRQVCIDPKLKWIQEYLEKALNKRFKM

Sequence of C-X-C chemokine receptor type 4 (P61073 whole entry): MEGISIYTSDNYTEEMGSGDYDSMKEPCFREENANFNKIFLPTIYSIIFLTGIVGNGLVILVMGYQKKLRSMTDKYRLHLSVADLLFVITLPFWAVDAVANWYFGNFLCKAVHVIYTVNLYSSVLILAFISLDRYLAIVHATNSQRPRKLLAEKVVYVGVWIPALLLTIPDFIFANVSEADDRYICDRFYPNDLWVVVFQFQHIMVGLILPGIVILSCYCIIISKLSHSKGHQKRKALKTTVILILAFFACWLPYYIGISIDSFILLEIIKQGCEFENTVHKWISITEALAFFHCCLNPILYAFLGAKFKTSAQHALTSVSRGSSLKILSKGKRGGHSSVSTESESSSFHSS

Row | pIC50 [1] | pIC50 [2] | SMILES
1 | 7.17 |  | Cc1ccnc2c(N)cc(Cc3cnc(N)nc3N)cc12
2 | 7.17 |  | COc1cc(Cc2cnc(N)nc2N)cc2c1N(CCOC(C)=O)CCC2C (stereo not given)
3 |  | 6.21 | CCOC(=O)C1CNc2c(OC)cc(Cc3cnc(N)nc3N)c(OC)c2C1 (stereo not given)
4 | 6.92 |  | Nc1ncc(Cc2ccc3ncccc3c2)c(N)n1
5 | 6.91 |  | COc1cc(Cc2cnc(N)nc2N)cc2c(C)cc(C)nc12
